Drawing on US20220081433A1, “CYCLIC SULFAMIDE COMPOUNDS FOR TREATMENT OF HBV” (Assembly Biosciences, Inc., priority 2018, published 2022), this text covers EC50 for one molecule.

The subject of this test is HBV. Description: Activity of test compounds on viral production from HepAD38 cells (viral load by qPCR of HBV core sequence). The format is cell-based. The conditions noted are these: Hepatitis B virus, 120 h, 5 days, supernatant HBV DNA by qPCR vs DMSO control, read-out: viral load lowering EC50 (Activity). As for the experimental part: Assay Measuring Activity of Test Compounds on Viral Production from HepAD38 Cells
HepAD38 cells grown in a T-150 flask (Corning, cat#: 430825) with Growth Medium (DMEM/F12 (1:1) (Hyclone, cat#: SH30023.02), 1× Pen/Strep (Invitrogen, cat#: 15140-122), 10% FBS (Tissue Culture Biologics, cat#: 101), 250 μg/mL G418 (Alfa Aesar, cat#: J62671), 1 μg/mL Tetracycline (Teknova, cat#: T3320)) were detached with 0.25% trypsin-EDTA (Invitrogen, cat#: 25200-056). Tetracycline-free treatment medium (15 mL DMEM/F12 (1:1) 1×Pen/step, with 2% FBS, Tet-system approved (Clontech, cat#: 631106) were then added to mix, transferred into a 50 ml conical tube (Falcon, cat#: 21008-918) and spun at 1300 rpm for 5 min. Pelleted cells were then re-suspended/washed with 50 mL of 1×DPBS (Invitrogen, cat#: 14190-136) 2 times and 50 mL treatment medium twice. HepAD38 cells were then re-suspended with 10 mL of treatment medium, syringed and counted. Wells of 96-well clear bottom TC plate (Corning, cat#: 3904) were seeded at 50,000 cells/well in 180 μL of treatment medium, and 20 μL of either 10% DMSO (Sigma, cat#: D4540) as controls or a 10× solution of test compounds in 10% DMSO in treatment media was added for a final compound concentration starting at 10 μM, and plates were incubated in 5% CO2 incubator at 37° C. for 5 days.
Subsequently viral load production was assayed by quantitative PCR (qPCR) of the HBV core sequence. PCR reaction mixture containing forward primers HBV-f 5′-CTGTGCCTTGGGTGGCTTT-3′ (IDT DNA), Reverse primers HBV-r 5′-[…]-3′ (IDT DNA), Fluorescent TaqMan™ Probes HBV-probe 5′-FAM/AGCTCCAAA/ZEN/[…]/3IABkFQ-3′ (IDT DNA), 10 μL/well of PerfeCTa® qPCR ToughMix® (Quanta Biosciences, Cat#: 95114-05K), and 6 μL/well of DEPC water (Alfa Aesar, cat#: J62087) was prepared. Four μL of supernatant was added to 16 μL of the reaction mixture in a qPCR plate (Applied Biosytems, Cat#: 4309849), sealed with a film (Applied Biosystems, Cat#: 4311971), centrifuged for a few seconds, and subsequently run on an Applied Biosystems VIIA7. The PCR mixture was incubated at 45° C. for 5 min, then 95° C. for 10 min, followed by 40 cycles of 10 seconds at 95° C. and 20 seconds at 60° C. Viral load was quantified against known HBV DNA standards by using ViiA™ 7 Software. Viral load in the supernatant from wells with treated cells were compared against viral load in supernatant from DMSO control wells (≥ 3 per plate). Cell viability assay was performed with CellTiter-Glo Luminescent Cell Viability Assay (Promega, cat#: G7573) with modification. Mixed appropriate amount of CellTiter-Glo (CTG) 1×DPBS in a 1:1 ratio, added 100 uL of the mixture to each well followed completely removal of all supernatant in each well without touching cell surface. Incubated the plate at room temperature for 10 min on an orbital shaker, and then read the plate with a plate reader (TECAN M1000 or Envision). EC50 or CC50 values were calculated through curve-fitting of the four-parameter nonlinear-logistic-regression model (GraphPad Prism or Dotmatics). CC50 values were all >10 μM.
Background: In qPCR the cycle at which signal appears reflects the starting amount.

Molecules are shown by their SMILES.

Turning to `Cc1cc(-c2cccc(C3CC(C(=O)Nc4ccc(F)c(Cl)c4)N(C)S(=O)(=O)N3)c2)ccc1F` (stereo not shown) [Example 10, N-(3-Chloro-4-fluorophenyl)-5-(4′-fluoro-3′-methyl-[1,1′-biphenyl]-3-yl)-2-methyl-1,2,6-thiadiazinane-3-carboxamide 1,1-dioxide], the EC50 (commonly the concentration at which the effect is half-maximal) was less than 1000 nM.
